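Growth conditions: 96-well plates. Treatment: test compound, 48 hours, 5 concentrations. Analysis: linear interpolation between bracketing concentrations; unreached endpoints set to highest concentration. GI50 = concentration required for 50% inhibition of growth. Definition used: TGI = concentration required for complete inhibition of growth.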
Experiments:
Test in all cases: growth of human tumour cells (NCI), 48 h
[1] = tested on: HCT-15 colon
[2] = tested on: HCC-2998 colon
[3] = tested on: DU-145 prostate
[4] = tested on: T-47D breast
[5] = tested on: ACHN renal
[6] = tested on: OVCAR-5 ovarian
[7] = tested on: SK-MEL-28 melanoma
[8] = tested on: 786-0 renal
[9] = tested on: SF-268 CNS
[10] = tested on: SW-620 colon
[11] = tested on: MCF7 breast
[12] = tested on: NCI-H23 lung
[13] = tested on: HS 578T breast
[14] = tested on: KM12 colon
[15] = tested on: A549 NSCLC
[16] = tested on: MDA-MB-231 breast
[17] = tested on: RXF 393 renal
[18] = tested on: COLO 205 colon
[19] = tested on: UACC-62 melanoma
[20] = tested on: HT29 colon
[21] = tested on: BT-549 breast
[22] = tested on: CCRF-CEM leukemia
[23] = tested on: OVCAR-3 ovarian
[24] = tested on: LOX IMVI melanoma
[25] = tested on: SK-OV-3 ovarian
[26] = tested on: NCI/ADR-RES ovarian
[27] = tested on: K-562 leukemia
[28] = tested on: NCI-H522 lung
[29] = tested on: M14 melanoma
[30] = tested on: HOP-62 NSCLC
[31] = tested on: OVCAR-4 ovarian
[32] = tested on: U251 CNS
[33] = tested on: SK-MEL-2 melanoma
[34] = tested on: NCI-H460 lung
[35] = tested on: MOLT-4 leukemia
[36] = tested on: SNB-75 CNS
[37] = tested on: HOP-92 NSCLC
[38] = tested on: PC-3 prostate
[39] = tested on: NCI-H226 lung
[40] = tested on: IGROV1 ovarian
[41] = tested on: SK-MEL-5 melanoma
[42] = tested on: SNB-19 CNS
[43] = tested on: SR leukemia
[44] = tested on: HCT-116 colon
[45] = tested on: OVCAR-8 ovarian
[46] = tested on: UACC-257 melanoma
[47] = tested on: UO-31 renal
[48] = tested on: RPMI-8226 leukemia
[49] = tested on: SF-539 CNS
[50] = tested on: A498 renal
[51] = tested on: EKVX NSCLC

## CC(=O)CCc1ccc(Oc2c3c(nc4ccccc24)OCC3)cc1
[1]
  GI50: 58.8 µM
  TGI: > 100 µM
[2]
  GI50: 32.5 µM
  TGI: 91.8 µM
[3]
  GI50: > 100 µM
  TGI: > 100 µM
[4]
  GI50: 3.7 µM
  TGI: 23.6 µM
[5]
  GI50: 53.9 µM
  TGI: > 100 µM
[6]
  GI50: 77 µM
  TGI: > 100 µM
[7]
  GI50: 44.9 µM
  TGI: > 100 µM
[8]
  GI50: > 100 µM
  TGI: > 100 µM
[9]
  GI50: 27.5 µM
  TGI: > 100 µM
[10]
  GI50: > 100 µM
  TGI: > 100 µM
[11]
  GI50: 60.6 µM
  TGI: > 100 µM
[12]
  GI50: 35.3 µM
  TGI: > 100 µM
[13]
  GI50: 71.4 µM
  TGI: > 100 µM
[14]
  GI50: > 100 µM
  TGI: > 100 µM
[15]
  GI50: 11.7 µM
  TGI: > 100 µM
[16]
  GI50: 52 µM
  TGI: > 100 µM
[17]
  GI50: 22.3 µM
  TGI: > 100 µM
[18]
  GI50: > 100 µM
  TGI: > 100 µM
[19]
  GI50: 34.1 µM
  TGI: > 100 µM
[20]
  GI50: > 100 µM
  TGI: > 100 µM
[21]
  GI50: 67.5 µM
  TGI: > 100 µM
[22]
  GI50: > 100 µM
  TGI: > 100 µM
[23]
  GI50: 31.6 µM
  TGI: > 100 µM
[24]
  GI50: > 100 µM
  TGI: > 100 µM
[25]
  GI50: 62.1 µM
  TGI: > 100 µM
[26]
  GI50: 29.5 µM
  TGI: > 100 µM
[27]
  GI50: 59.3 µM
  TGI: > 100 µM
[28]
  GI50: 56.2 µM
  TGI: > 100 µM
[29]
  GI50: > 100 µM
  TGI: > 100 µM
[30]
  GI50: > 100 µM
  TGI: > 100 µM
[31]
  GI50: > 100 µM
  TGI: > 100 µM
[32]
  GI50: 41.7 µM
  TGI: > 100 µM
[33]
  GI50: > 100 µM
  TGI: > 100 µM
[34]
  GI50: 29.4 µM
  TGI: > 100 µM
[35]
  GI50: 91.9 µM
  TGI: > 100 µM
[36]
  GI50: 14.3 µM
  TGI: 61.7 µM
[37]
  GI50: 42.9 µM
  TGI: > 100 µM
[38]
  GI50: 82.3 µM
  TGI: > 100 µM
[39]
  GI50: 12.3 µM
  TGI: 78.8 µM
[40]
  GI50: > 100 µM
  TGI: > 100 µM
[41]
  GI50: 16.6 µM
  TGI: 55.1 µM
[42]
  GI50: > 100 µM
  TGI: > 100 µM
[43]
  GI50: 60.2 µM
  TGI: > 100 µM
[44]
  GI50: > 100 µM
  TGI: > 100 µM
[45]
  GI50: 3.76 µM
  TGI: > 100 µM
[46]
  GI50: 3.12 µM
  TGI: 30.2 µM
[47]
  GI50: 54.4 µM
  TGI: > 100 µM
[48]
  GI50: 67.7 µM
  TGI: > 100 µM
[49]
  GI50: 85.7 µM
  TGI: > 100 µM
[50]
  GI50: 9.22 µM
  TGI: 50.1 µM
[51]
  GI50: 13.8 µM
  TGI: 98.6 µM

Source: PubChem BioAssay (NCI)
